Biological target: T1, CDK5-p25 kinase (Homo sapiens, UniProt Q00535)
T1 construct: purchased Invitrogen PV4677
Experiment: CDK5-p25 kinase enzymatic assay
Format: biochemical
Conditions: 50 nM-99 nM; 5 uM ATP, 0.3 nM CDK5-p25; read-out: IC50 potency, CDK5-p25 kinase enzymatic assay, 50 nM-99 nM
Protocol: CDK5-p25 kinase (Invitrogen PV4677) enzymatic activity was measured using electrophoretic separation and fluorescent detection to monitor phosphorylation of a fluorescently labeled histone H1-derived peptide substrate, FL29 (5-FAM-GGGPATPKKAKKL-CONH2, Caliper #760429)
First, 0.25 uL of serially diluted compound in DMSO at 100× concentration was transferred into each well of a 384-well polystyrene assay plate. To this was added 15 uL of a 1.67× enzyme solution (500 pM enzyme, 1 mM DTT (Sigma D9779), 1× reconstitution buffer with protease inhibitor (Caliper #700329 proprietary formulation)), followed by centrifugation for 1 min at 1000 rpm, and incubation for 5-15 min at room temperature to allow binding of compound to enzyme. To initiate the reaction, 10 uL of substrate/ATP mix (245 mM Hepes pH 7.5, 0.003% Brij 35, 0.004% Tween, 12.75 uM ATP, 3.75 uM FL29 peptide) were added to each well, followed by centrifugation at 1000 rpm for 1 min. The reaction was then incubated at room temperature for 30 min. Final assay conditions were: 0.3 nM CDK5-p25, 1.5 uM peptide, 5 uM ATP, 0.6 mM DTT, 1% DMSO, 98 mM HEPES pH 7.5.
After incubation, reactions were quenched by the addition of 45 uL Caliper termination solution (Caliper proprietary formula), followed by centrifugation at 1000 rpm for 1 min. Extent of reaction (percentage conversion of substrate to phosphorylated product) was then measured using the Caliper EZ II reader. Dose-response curves were created by plotting the inhibition of enzyme activity (normalized relative to vehicle treated and no ATP control reactions) as a function of the log of compound concentration. The curve was analyzed using a four parameter logistical fit to calculate IC50 values.

T1 sequence (Q00535 whole entry): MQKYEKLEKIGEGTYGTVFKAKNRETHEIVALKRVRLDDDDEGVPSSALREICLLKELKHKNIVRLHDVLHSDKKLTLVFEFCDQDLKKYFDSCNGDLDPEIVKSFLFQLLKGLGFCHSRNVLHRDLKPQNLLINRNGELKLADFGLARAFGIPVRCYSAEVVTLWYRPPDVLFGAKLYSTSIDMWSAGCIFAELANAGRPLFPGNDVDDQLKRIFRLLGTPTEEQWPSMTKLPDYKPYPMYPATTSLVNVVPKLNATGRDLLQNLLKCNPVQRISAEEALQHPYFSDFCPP
T1 sequence (Q15078 99-307 partner limits assumed): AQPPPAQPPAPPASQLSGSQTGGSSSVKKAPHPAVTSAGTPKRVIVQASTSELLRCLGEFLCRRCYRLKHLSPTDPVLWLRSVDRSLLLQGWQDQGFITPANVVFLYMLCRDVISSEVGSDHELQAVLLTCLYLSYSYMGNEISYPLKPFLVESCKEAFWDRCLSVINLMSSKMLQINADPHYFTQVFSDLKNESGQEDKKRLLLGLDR

IC50, 50 to 99 nM:
Nc1ncc(-c2ccc(CC(=O)Nc3ncn4c(C(F)(F)F)csc34)cc2)cn1 [Example 35, 2-[4-(2-aminopyrimidin-5-yl)phenyl]-N-[3-(trifluoromethyl)imidazo[5,1-b][1,3]thiazol-7-yl]acetamide]
C[C@H](C(=O)Nc1ncn2c(C(F)(F)F)csc12)c1ccc2ccccc2c1 [Example 36, (2S)-2-(2-naphthyl)-N-[3-(trifluoromethyl)imidazo[5,1-b][1,3]thiazol-7-yl]propanamide]
CC(C(=O)Nc1ncn2c(C(F)(F)F)csc12)c1ccc2ncccc2c1 (stereo not shown) [Example 39, 2-quinolin-6-yl-N-[3-(trifluoromethyl)imidazo[5,1-b][1,3]thiazol-7-yl]propanamide]
O=C(Cc1ccc2ccccc2c1)Nc1ncn2c(C(F)F)csc12 [Example 41, N-[3-(difluoromethyl)imidazo[5,1-b][1,3]thiazol-7-yl]-2-(2-naphthyl) acetamide]
O=C(Nc1ncn2c(C(F)(F)F)csc12)C(Cl)c1ccc2ccccc2c1 (stereo not shown) [Example 42, 2-chloro-2-(2-naphthyl)-N-[3-(trifluoromethyl)imidazo[5,1-b][1,3]thiazol-7-yl]acetamide]
Nc1cc(Nc2cccc(CC(=O)Nc3ncn4c(C(F)(F)F)csc34)c2)ccn1 [Example 49, 2-{3-[(2-aminopyridin-4-yl)amino]phenyl}-N-[3-(trifluoromethyl)imidazo[5,1-b][1,3]thiazol-7-yl]acetamide]
O=C(Cc1c[nH]c2ccccc12)Nc1ncn2c(C(F)(F)F)csc12 [Example 57, 2-(1H-indol-3-yl)-N-[3-(trifluoromethyl)imidazo[5,1-b][1,3]thiazol-7-yl]acetamide]
O=C(Cc1cccc(NC(=O)c2cccnc2)c1)Nc1ncn2c(C(F)(F)F)csc12 [Example 59, N-[3-(2-oxo-2-{[3-(trifluoromethyl)imidazo[5,1-b][1,3]thiazol-7-yl]amino}ethyl)phenyl] nicotinamide]
O=C(Cc1cccc(NC(=O)c2ccncc2)c1)Nc1ncn2c(C(F)(F)F)csc12 [Example 60, N-[3-(2-oxo-2-{[3-(trifluoromethyl)imidazo[5,1-b][1,3]thiazol-7-yl]amino}ethyl)phenyl] isonicotinamide]
O=C(Cc1ccc(NC(=O)c2cccnc2)cc1)Nc1ncn2c(C(F)(F)F)csc12 [Example 61, N-[4-(2-oxo-2-{[3-(trifluoromethyl)imidazo[5,1-b][1,3]thiazol-7-yl]amino}ethyl)phenyl] nicotinamide]
Nc1ccccc1-c1ccc(CC(=O)Nc2ncn3c(C(F)(F)F)csc23)cn1 [Example 63, 2-[6-(2-aminophenyl)pyridin-3-yl]-N-[3-(trifluoromethyl)imidazo[5,1-b][1,3]thiazol-7-yl]acetamide]

Same assay, conditions: 500 nM-3 μM; 5 uM ATP, 0.3 nM CDK5-p25; read-out: IC50 potency, CDK5-p25 kinase enzymatic assay, 500 nM-3 μM

IC50, 500 to 3000 nM:
O=C(Cc1ccc2ccccc2c1)Nc1ncn2c(C3CC3)csc12 [Example 38, N-(3-cyclopropyl-imidazo[5,1-b][1,3]thiazol-7-yl)-2-(2-naphthyl) acetamide]
C[C@@H](C(=O)Nc1ncn2c(C(F)(F)F)csc12)c1ccc2ncccc2c1 [Example 47, (2R)-2-quinolin-6-yl-N-[3-(trifluoromethyl)imidazo[5,1-b][1,3]thiazol-7-yl]propanamide]
Cc1csc2c(NC(=O)Cc3ccc4ccccc4c3)ncn12 [Example 65, N-(3-methylimidazo [5,1-b][1,3]thiazol-7-yl)-2-(2-naphthyl) acetamide]
O=C(Nc1ncn2c(C(F)(F)F)csc12)C(CO)c1ccc2ccccc2c1 (stereo not shown) [Example 67, 3-hydroxy-2-(2-naphthyl)-N-[3-(trifluoromethyl)imidazo[5,1-b][1,3]thiazol-7-yl]propanamide]

Same assay, conditions: 5 uM ATP, 0.3 nM CDK5-p25; read-out: IC50 potency, CDK5-p25 kinase enzymatic assay, 100 nM-499 nM

IC50, 100 to 499 nM:
CC(C(=O)Nc1ncn2c(C(F)(F)F)csc12)c1ccc2ccccc2c1 (stereo not shown) [Example 34, 2-(2-naphthyl)-N-[3-(trifluoromethyl)imidazo[5,1-b][1,3]thiazol-7-yl]propanamide]
O=C(Nc1ncn2c(C(F)(F)F)csc12)C(O)c1ccc2ccccc2c1 (stereo not shown) [Example 40, 2-hydroxy-2-(2-naphthyl)-N-[3-(trifluoromethyl)imidazo[5,1-b][1,3]thiazol-7-yl]acetamide]
Cc1cnc(-c2ccc(CC(=O)Nc3ncn4c(C(F)(F)F)csc34)cc2)cn1 [Example 51, 2-[4-(5-methylpyrazin-2-yl)phenyl]-N-[3-(trifluoromethyl)imidazo[5,1-b][1,3]thiazol-7-yl]acetamide]
CS(=O)(=O)c1ccc(CC(=O)Nc2ncn3c(C(F)(F)F)csc23)cc1 [Example 58, 2-[4-(methylsulfonyl)phenyl]-N-[3-(trifluoromethyl)imidazo[5,1-b][1,3]thiazol-7-yl]acetamide]
O=C(CN1Cc2ccccc2C1)Nc1ncn2c(C(F)(F)F)csc12 [Example 68, 2-(1,3-dihydro-2H-isoindol-2-yl)-N-[3-(trifluoromethyl)imidazo[5,1-b][1,3]thiazol-7-yl]acetamide]

Same assay, conditions: '<50 nM'; 5 uM ATP, 0.3 nM CDK5-p25; read-out: IC50 potency, CDK5-p25 kinase enzymatic assay, <50 nM

IC50, < 50 nM:
O=C(Nc1ncn2c(C(F)(F)F)csc12)C(F)c1ccc2ccccc2c1 (stereo not shown) [Example 33, 2-fluoro-2-(2-naphthyl)-N-[3-(trifluoromethyl)imidazo[5,1-b][1,3]thiazol-7-yl]acetamide]
O=C(Cc1ccc2[nH]ncc2c1)Nc1ncn2c(C(F)(F)F)csc12 [Example 37, 2-(1H-indazol-5-yl)-N-[3-(trifluoromethyl)imidazo[5,1-b][1,3]thiazol-7-yl]acetamide]
O=C(Cc1ccc(Cl)cc1)Nc1ncn2c(C(F)(F)F)csc12 [Example 43, 2-(4-chlorophenyl)-N-[3-(trifluoromethyl)imidazo[5,1-b][1,3]thiazol-7-yl]acetamide]
C[C@H](C(=O)Nc1ncn2c(C(F)(F)F)csc12)c1ccc2ncccc2c1 [Example 46, (2S)-2-quinolin-6-yl-N-[3-(trifluoromethyl)imidazo[5,1-b][1,3]thiazol-7-yl]propanamide]
O=C(Cc1cccc(-c2cc[nH]n2)c1)Nc1ncn2c(C(F)(F)F)csc12 [Example 48, 2-[3-(1H-pyrazol-3-yl)phenyl]-N-[3-(trifluoromethyl)imidazo[5,1-b][1,3]thiazol-7-yl]acetamide]
O=C(Cc1ccc(-c2ccccc2)nc1)Nc1ncn2c(C(F)(F)F)csc12 [Example 50, 2-(6-phenylpyridin-3-yl)-N-[3-(trifluoromethyl)imidazo[5,1-b][1,3]thiazol-7-yl]acetamide]
O=C(Cc1cccc(-c2cccnc2)c1)Nc1ncn2c(C(F)(F)F)csc12 [Example 52, 2-(3-pyridin-3-ylphenyl)-N-[3-(trifluoromethyl)imidazo[5,1-b][1,3]thiazol-7-yl]acetamide]
O=C(Cc1ccc(-c2ccsc2)cc1)Nc1ncn2c(C(F)(F)F)csc12 [Example 53, 2-[4-(3-thienyl)phenyl]-N-[3-(trifluoromethyl)imidazo[5,1-b][1,3]thiazol-7-yl]acetamide]
O=C(Cc1ccc(-c2ccccn2)cc1)Nc1ncn2c(C(F)(F)F)csc12 [Example 54, 2-(4-pyridin-2-ylphenyl)-N-[3-(trifluoromethyl)imidazo[5,1-b][1,3]thiazol-7-yl]acetamide]
Cc1ccc(-c2ccc(CC(=O)Nc3ncn4c(C(F)(F)F)csc34)cc2)cn1 [Example 55, 2-[4-(6-methylpyridin-3-yl)phenyl]-N-[3-(trifluoromethyl)imidazo[5,1-b][1,3]thiazol-7-yl]acetamide]
O=C(Cc1cccc(-c2ccccn2)c1)Nc1ncn2c(C(F)(F)F)csc12 [Example 56, 2-(3-pyridin-2-ylphenyl)-N-[3-(trifluoromethyl)imidazo[5,1-b][1,3]thiazol-7-yl]acetamide]
O=C(Cc1ccc(NC(=O)c2ccncc2)cc1)Nc1ncn2c(C(F)(F)F)csc12 [Example 62, N-[4-(2-oxo-2-{[3-(trifluoromethyl)imidazo[5,1-b][1,3]thiazol-7-yl]amino}ethyl)phenyl] isonicotinamide]
O=C(Cc1cccc(-c2ccncc2)c1)Nc1ncn2c(C(F)(F)F)csc12 [Example 64, 2-(3-pyridin-4-ylphenyl)-N-[3-(trifluoromethyl)imidazo[5,1-b][1,3]thiazol-7-yl]acetamide]
O=C(Cc1cccc2ccccc12)Nc1ncn2c(C(F)(F)F)csc12 [Example 66, 2-(1-naphthyl)-N-[3-(trifluoromethyl)imidazo[5,1-b][1,3]thiazol-7-yl]acetamide]

— patent US20130225591A1, “IMIDOTHIAZOLE KINASE INHIBITORS” (priority 2009, published 2013)
